In PubChem BioAssay (NCI):
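Tested at 5 concentrations; 48 h exposure; 96-well plates; endpoints linearly interpolated, else capped at highest concentration. GI50 marks 50% less growth. The concentration for full growth arrest is given as TGI.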

Assays:
Experiment in all cases: NCI-60 cell line screen, 48 h
[1] = tested on: 786-0 renal
[2] = tested on: A549 NSCLC
[3] = tested on: ACHN renal
[4] = tested on: BT-549 breast
[5] = tested on: CAKI-1 renal
[6] = tested on: COLO 205 colon
[7] = tested on: DU-145 prostate
[8] = tested on: EKVX NSCLC
[9] = tested on: HCC-2998 colon
[10] = tested on: HCT-116 colon
[11] = tested on: HCT-15 colon
[12] = tested on: HL-60(TB) leukemia
[13] = tested on: HOP-62 NSCLC
[14] = tested on: HOP-92 NSCLC
[15] = tested on: HS 578T breast
[16] = tested on: IGROV1 ovarian
[17] = tested on: K-562 leukemia
[18] = tested on: KM12 colon
[19] = tested on: LOX IMVI melanoma
[20] = tested on: M14 melanoma
[21] = tested on: MCF7 breast
[22] = tested on: MDA-MB-231 breast
[23] = tested on: MDA-MB-435
[24] = tested on: NCI-H23 lung
[25] = tested on: NCI-H460 lung
[26] = tested on: NCI-H522 lung
[27] = tested on: NCI/ADR-RES ovarian
[28] = tested on: OVCAR-3 ovarian
[29] = tested on: OVCAR-4 ovarian
[30] = tested on: OVCAR-5 ovarian
[31] = tested on: OVCAR-8 ovarian
[32] = tested on: PC-3 prostate
[33] = tested on: RPMI-8226 leukemia
[34] = tested on: RXF 393 renal
[35] = tested on: SF-268 CNS
[36] = tested on: SF-295 CNS
[37] = tested on: SF-539 CNS
[38] = tested on: SK-MEL-2 melanoma
[39] = tested on: SK-MEL-28 melanoma
[40] = tested on: SK-MEL-5 melanoma
[41] = tested on: SK-OV-3 ovarian
[42] = tested on: SN12C renal
[43] = tested on: SNB-19 CNS
[44] = tested on: SR leukemia
[45] = tested on: SW-620 colon
[46] = tested on: T-47D breast
[47] = tested on: TK-10 renal
[48] = tested on: U251 CNS
[49] = tested on: UACC-257 melanoma
[50] = tested on: UACC-62 melanoma
[51] = tested on: UO-31 renal
[52] = tested on: CCRF-CEM leukemia
[53] = tested on: HT29 colon
[54] = tested on: MALME-3M melanoma
[55] = tested on: MOLT-4 leukemia

Work on `COC(=O)C1=C(O)[C@H](C(=O)OC)C2(O)[C@@H](C(=O)OC)[C@H]1C[C@@H](c1ccc(OC(=O)n3ccnc3)cc1)[C@@H]2C(=O)OC` yielded a GI50 [1] of 18.6 µM, a TGI [1] of 45.6 µM and a GI50 [2] of 15.2 µM. The TGI [2] was > 50 µM, the GI50 [3] was 15.9 µM and the TGI [3] was 42.6 µM. For the same compound, the GI50 [4] was 8.68 µM, the TGI [4] was 24.9 µM and the GI50 [5] was 12.7 µM. The TGI [5] was 41.6 µM, the GI50 [6] was 9.69 µM and the TGI [6] was 34.1 µM. The GI50 [7] was 11.7 µM, the TGI [7] was 42.9 µM and the GI50 [8] was 13.1 µM. The TGI [8] was 45.4 µM, the GI50 [9] was 9.63 µM and the TGI [9] was 18 µM. For the same compound, the GI50 [10] was 16.8 µM, the TGI [10] was > 50 µM and the GI50 [11] was 21 µM. For the same compound, the TGI [11] was > 50 µM, the GI50 [12] was 13.3 µM and the TGI [12] was > 50 µM. The GI50 [13] was 31.3 µM, the TGI [13] was > 50 µM and the GI50 [14] was 17.3 µM. The TGI [14] was > 50 µM, the GI50 [15] was 12.6 µM and the TGI [15] was 41.3 µM. For the same compound, the GI50 [16] was 6.62 µM, the TGI [16] was 25.4 µM and the GI50 [17] was 20.3 µM. The TGI [17] was > 50 µM, the GI50 [18] was 10.6 µM and the TGI [18] was 24.5 µM. The GI50 [19] was 13.8 µM, the TGI [19] was > 50 µM and the GI50 [20] was 30.3 µM. For the same compound, the TGI [20] was > 50 µM, the GI50 [21] was 18.4 µM and the TGI [21] was > 50 µM. The GI50 [22] was 14.8 µM, the TGI [22] was 48.6 µM and the GI50 [23] was 8.77 µM. The TGI [23] was 21.4 µM, the GI50 [24] was 13.9 µM and the TGI [24] was 25.6 µM. The GI50 [25] was 17 µM, the TGI [25] was > 50 µM and the GI50 [26] was 10.9 µM. The TGI [26] was 34.4 µM, the GI50 [27] was 16.1 µM and the TGI [27] was 30.7 µM. For the same compound, the GI50 [28] was 12.6 µM, the TGI [28] was > 50 µM and the GI50 [29] was 20.2 µM. The TGI [29] was > 50 µM, the GI50 [30] was 25.7 µM and the TGI [30] was > 50 µM. The GI50 [31] was 13.4 µM, the TGI [31] was 36.4 µM and the GI50 [32] was 22.4 µM. For the same compound, the TGI [32] was > 50 µM, the GI50 [33] was 18.1 µM and the TGI [33] was > 50 µM. For the same compound, the GI50 [34] was 11.8 µM, the TGI [34] was 26.7 µM and the GI50 [35] was 18.7 µM. The TGI [35] was > 50 µM, the GI50 [36] was 12.7 µM and the TGI [36] was 45.6 µM. The GI50 [37] was 8.44 µM, the TGI [37] was 21.3 µM and the GI50 [38] was 22.8 µM. For the same compound, the TGI [38] was > 50 µM, the GI50 [39] was 10.1 µM and the TGI [39] was 30.5 µM. For the same compound, the GI50 [40] was 12.7 µM, the TGI [40] was 36.7 µM and the GI50 [41] was 10.3 µM. It also gave a TGI [41] of 29.6 µM, a GI50 [42] of 11.4 µM and a TGI [42] of 30 µM. For the same compound, the GI50 [43] was 19.6 µM, the TGI [43] was > 50 µM and the GI50 [44] was 10.8 µM. For the same compound, the TGI [44] was > 50 µM, the GI50 [45] was 14.3 µM and the TGI [45] was > 50 µM. The GI50 [46] was 7.39 µM, the TGI [46] was 46.4 µM and the GI50 [47] was 36.8 µM. The TGI [47] was > 50 µM, the GI50 [48] was 17.9 µM and the TGI [48] was > 50 µM. For the same compound, the GI50 [49] was 16 µM, the TGI [49] was 39.8 µM and the GI50 [50] was 9.07 µM. For the same compound, the TGI [50] was 30.4 µM, the GI50 [51] was 8.87 µM and the TGI [51] was 17.8 µM.
In the case of `c1ccc2c(c1)SC1=Nc3sc4ccccc4[n+]3CN12`, the TGI [1] is reported as 83.7 µM, the TGI [2] is reported as 25.5 µM and the TGI [3] is reported as > 100 µM. For the same compound, the TGI [4] was > 100 µM, the TGI [5] was 42.4 µM and the TGI [52] was > 100 µM. For the same compound, the TGI [6] was 10.9 µM, the TGI [7] was > 100 µM and the TGI [8] was 53.5 µM. The TGI [10] was > 100 µM, the TGI [11] was > 100 µM and the TGI [12] was 82.3 µM. For the same compound, the TGI [13] was > 100 µM, the TGI [14] was 47.5 µM and the TGI [15] was 67.9 µM. It also gave a TGI [53] of 37.7 µM, a TGI [16] of 46.3 µM and a TGI [17] of 81.6 µM. The TGI [18] was 29.3 µM, the TGI [20] was 66.2 µM and the TGI [54] was 37.6 µM. For the same compound, the TGI [21] was 42.9 µM, the TGI [22] was 49.2 µM and the TGI [23] was 49.5 µM. The TGI [55] was 39 µM, the TGI [24] was 59.8 µM and the TGI [25] was 44.1 µM. The TGI [26] was 9.03 µM, the TGI [27] was > 100 µM and the TGI [28] was 11.7 µM. The TGI [30] was 71.1 µM, the TGI [31] was > 100 µM and the TGI [32] was > 100 µM. The TGI [33] was 59.6 µM, the TGI [35] was 49.7 µM and the TGI [36] was > 100 µM. The TGI [37] was 69 µM, the TGI [38] was 28.7 µM and the TGI [40] was 10.9 µM. For the same compound, the TGI [41] was 66.8 µM, the TGI [42] was 71.1 µM and the TGI [43] was > 100 µM. For the same compound, the TGI [44] was 56.8 µM, the TGI [45] was > 100 µM and the TGI [46] was 78 µM. For the same compound, the TGI [47] was 76.6 µM, the TGI [48] was 21.6 µM and the TGI [49] was > 100 µM. For the same compound, the TGI [50] was 45.1 µM and the TGI [51] was > 100 µM.
